Among the test systems are 786-0; A498; CCRF-CEM; DU-145; EKVX; HCT-116; HCT-15; HT-29; MDA-MB-231; MDA-MB-435; NCI-H522; NCI/ADR-RES; OVCAR-3; SNB-75; SR; HOP-92; RPMI-8226; SK-MEL-28; SNB-19; SW-620.
Holding throughout (assay): growth of human tumour cells (NCI), 48 h

Experimental findings from ChEMBL document CHEMBL1201862, “PubChem BioAssay data set” (2004) are described below.

SMILES strings stand for the structures.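 Results reflect a 48-hour exposure of cells in 96-well plates to compound at five concentrations. GI50: concentration for 50% inhibition of growth.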 The source made the active and inactive calls. Rule as the data show it: active = GI50 up to about 1.1 µM and inactive = higher.

As for `Cc1cc2nnn(C3CCCO3)c2cc1C` (configuration not stated), the GI50 in the assay with 786-0, in the assay on A498, in the assay on CCRF-CEM, in the assay with DU-145, in the assay with EKVX and in the assay on HCT-116 was > 100 µM (inactive) throughout. Besides, the GI50 is above 100 µM with HCT-15; > 100 µM (inactive) in the assay with HT-29; > 100 µM (inactive) with MDA-MB-231; > 100 µM (inactive) in the assay with MDA-MB-435; > 100 µM (inactive) with NCI-H522; > 100 µM (inactive) in the assay with NCI/ADR-RES. Further, the values for the GI50 in the assay with OVCAR-3, in the assay with SNB-75 and in the assay with SR were > 100 µM (inactive), 31.8 µM (inactive) and > 100 µM (inactive), respectively.
Turning to `CCc1nc2c(n1CC)C(=O)c1ccccc1C2=O`, the GI50 in the assay on 786-0 was > 100 µM (inactive); in the assay with CCRF-CEM, 45.7 µM (inactive); in the assay with DU-145, 66.5 µM (inactive); in the assay with EKVX it was 91.6 µM (inactive); with HCT-116, > 10 µM (inactive); in the assay on HCT-15 it was 38.3 µM. In addition, the GI50 is 63.2 µM (inactive) with HOP-92; 24.9 µM (inactive) with HT-29; 16.9 µM (inactive) in the assay with MDA-MB-231; 18.3 µM (inactive) in the assay with MDA-MB-435; 31.6 µM (inactive) in the assay with NCI-H522; 31.2 µM (inactive) in the assay on NCI/ADR-RES. In addition, the GI50 in the assay on OVCAR-3 was 18.7 µM (inactive); in the assay with RPMI-8226 it was > 100 µM (inactive); with SK-MEL-28 it was 56.1 µM (inactive); in the assay on SNB-19, 45.6 µM (inactive); with SNB-75, 20.7 µM (inactive); in the assay with SR, 37.4 µM (inactive). Moreover, the GI50 in the assay on SW-620 is 26.7 µM (inactive).
On to `COC(=O)/C=C\COCC1C2CCC(=O)C21` (configuration not stated), for which the GI50 in the assay on 786-0 was 11.5 µM (inactive); with CCRF-CEM, 5.66 µM (inactive); with DU-145, > 25 µM (inactive); in the assay with EKVX it was 9.16 µM (inactive); with HCT-116, 16.3 µM (inactive); in the assay on HCT-15, 9.57 µM. The GI50 in the assay on HOP-92 was 5.77 µM (inactive); in the assay with HT-29, 6.05 µM (inactive); in the assay with MDA-MB-231, > 25 µM (inactive); in the assay on MDA-MB-435, > 25 µM (inactive); in the assay with NCI-H522, 3.86 µM (inactive); in the assay with NCI/ADR-RES, 17.4 µM (inactive). Further, the GI50 in the assay with OVCAR-3 was 8.41 µM (inactive); in the assay on RPMI-8226, 11 µM (inactive); with SK-MEL-28, > 25 µM (inactive); in the assay with SNB-19, > 25 µM (inactive); in the assay on SNB-75, > 25 µM (inactive); in the assay with SR, 8.3 µM (inactive). Besides, the GI50 with SW-620 was 7.93 µM (inactive).
As to `COc1ccc(CCc2ccc(O)c(C(=O)O)c2)cc1OC`, the GI50 is > 100 µM (inactive) in the assay on 786-0; 50.7 µM (inactive) in the assay with CCRF-CEM; > 100 µM (inactive) with DU-145; > 100 µM (inactive) in the assay on EKVX; 65.5 µM (inactive) with HCT-116; 84.1 µM in the assay with HCT-15. Besides, the GI50 was > 100 µM (inactive) in the assay on HOP-92; > 100 µM (inactive) in the assay with HT-29; 57.8 µM (inactive) in the assay on MDA-MB-231; > 100 µM (inactive) in the assay on MDA-MB-435; > 100 µM (inactive) in the assay with NCI-H522; > 100 µM (inactive) in the assay with NCI/ADR-RES. The GI50 in the assay with OVCAR-3 was > 100 µM (inactive); in the assay on RPMI-8226, > 100 µM (inactive); in the assay on SK-MEL-28, > 100 µM (inactive); in the assay with SNB-19 it was > 100 µM (inactive); in the assay on SNB-75 it was 79.6 µM (inactive); with SR it was > 100 µM (inactive). Further, in the assay with SW-620, the GI50 is > 10 µM (inactive).
